Where two headings read alike, the source gives them in different places.
Legend:
[1] = Whole blood-to-plasma ratio, mouse
[2] = Mouse exposure / pharmacokinetic studies; assay type: in vivo, mice
[3] = molecular target: CYP 2C9 (Homo sapiens (Human), UniProt P11712); test: CYP inhibition in human liver microsomes, 2C9
[4] = Stability in rat cryopreserved hepatocytes; assay type: in vitro ADME; conditions: Rat cryopreserved hepatocytes
[5] = Stability in human cryopreserved hepatocytes; assay type: in vitro ADME
[6] = In vitro metabolic stability, mouse liver microsomes; assay type: in vitro ADME; conditions: mouse liver microsomes; read-out: m CLint
Description: In Vitro Metabolic Stability. As described by Charman et al. (2020), metabolic stability assays were performed by incubating test compounds in liver microsomes at 37° C. and 0.4 mg/mL protein concentration. The metabolic reaction was initiated by the addition of an NADPH-regenerating system and quenched at various time points over a 60 min incubation period by the addition of acetonitrile containing diazepam as internal standard. Control samples (containing no NADPH) were included (and quenched at 2, 30 and 60 min) to monitor for potential degradation in the absence of cofactor.

[7] = system: S. mansoni; test: Antischistosomal screen in S. mansoni-infected mice; assay type: in vivo, Schistosoma mansoni; conditions: Schistosoma mansoni, single oral dose, mouse model
From the text: Antischistosomal Screen. […] As described by Lombardo et al. (2019), cercariae of S. mansoni were obtained from infected Biomphalaria glabrata. By way of example, NMRI mice were infected subcutaneously with approximately 100 S. mansoni cercariae. […] Untreated mice (n=8) served as controls. At 21 d post-treatment, animals were killed by the CO2 method and dissected. Worms were removed by picking, then sexed and counted.

[8] = molecular target: CYP 3A4 (Homo sapiens (Human), UniProt P08684); test: CYP inhibition in human liver microsomes, 3A4
[9] = molecular target: CYP 2D6 (Homo sapiens (Human), UniProt P10635); test: CYP inhibition in human liver microsomes, 2D6
Sequence of CYP 2D6 (P10635 whole entry): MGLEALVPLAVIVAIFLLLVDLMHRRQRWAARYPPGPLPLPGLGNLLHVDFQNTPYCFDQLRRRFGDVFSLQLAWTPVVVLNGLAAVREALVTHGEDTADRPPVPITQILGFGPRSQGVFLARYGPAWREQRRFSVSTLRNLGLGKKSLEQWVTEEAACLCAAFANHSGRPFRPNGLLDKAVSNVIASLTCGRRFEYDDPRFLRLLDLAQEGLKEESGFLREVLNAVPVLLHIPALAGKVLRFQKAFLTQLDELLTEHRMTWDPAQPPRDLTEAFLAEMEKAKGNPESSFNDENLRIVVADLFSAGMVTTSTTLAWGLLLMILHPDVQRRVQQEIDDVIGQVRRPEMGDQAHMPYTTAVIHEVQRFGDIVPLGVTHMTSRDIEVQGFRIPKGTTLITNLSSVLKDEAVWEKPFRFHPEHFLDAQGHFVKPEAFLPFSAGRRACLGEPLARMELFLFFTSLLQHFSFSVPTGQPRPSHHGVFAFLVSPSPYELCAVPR

Sequence of CYP 3A4 (P08684 whole entry): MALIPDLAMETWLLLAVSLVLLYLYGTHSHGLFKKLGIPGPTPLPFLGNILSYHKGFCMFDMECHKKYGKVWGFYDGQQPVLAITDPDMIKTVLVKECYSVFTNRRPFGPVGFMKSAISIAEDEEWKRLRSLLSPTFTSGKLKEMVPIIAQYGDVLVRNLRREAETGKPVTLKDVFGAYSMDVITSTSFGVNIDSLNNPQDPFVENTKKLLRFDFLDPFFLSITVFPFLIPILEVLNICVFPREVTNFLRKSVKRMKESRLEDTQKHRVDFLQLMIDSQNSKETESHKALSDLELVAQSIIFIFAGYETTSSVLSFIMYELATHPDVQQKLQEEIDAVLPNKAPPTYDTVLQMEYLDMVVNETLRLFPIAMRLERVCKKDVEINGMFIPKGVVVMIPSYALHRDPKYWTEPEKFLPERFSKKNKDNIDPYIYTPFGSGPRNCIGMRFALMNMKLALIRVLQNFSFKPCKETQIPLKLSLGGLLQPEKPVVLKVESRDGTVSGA
Sequence of CYP 2C9 (P11712 whole entry): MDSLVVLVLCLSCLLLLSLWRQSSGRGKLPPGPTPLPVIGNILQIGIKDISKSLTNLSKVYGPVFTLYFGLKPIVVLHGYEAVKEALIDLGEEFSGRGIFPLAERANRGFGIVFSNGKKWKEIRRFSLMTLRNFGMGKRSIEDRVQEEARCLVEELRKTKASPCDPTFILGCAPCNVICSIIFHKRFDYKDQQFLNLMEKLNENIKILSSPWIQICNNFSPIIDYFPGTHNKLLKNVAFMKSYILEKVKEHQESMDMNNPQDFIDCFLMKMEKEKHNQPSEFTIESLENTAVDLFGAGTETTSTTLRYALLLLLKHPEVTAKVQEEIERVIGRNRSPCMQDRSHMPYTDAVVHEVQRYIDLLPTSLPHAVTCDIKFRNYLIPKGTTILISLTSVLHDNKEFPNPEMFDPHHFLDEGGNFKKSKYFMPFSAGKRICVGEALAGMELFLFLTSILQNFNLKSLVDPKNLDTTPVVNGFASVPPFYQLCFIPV

CC1(C)NC(=O)N(c2ccc(F)c(C(C)(F)F)c2)C1=O [Compound IC, 3-(3-(1,1-difluoroethyl)-4-fluorophenyl)-5,5-dimethylimidazolidine-2,4-dione]
B:P [1]: 0.95
clearance ([2]; male, Swiss outbred, mouse, in vivo, iv, 1 mg/kg, mice, IV, mean dose 1.0 mg/kg, read-out: Plasma CL): 1.96 mL/min/kg
AUC(0-t) ([2]; male, Swiss outbred, mouse, in vivo, 100 mg/kg PO in mice, read-out: AUC0-last): 1560 µg·h/mL
Cmax ([2]; male, Swiss outbred, mouse, in vivo, 100 mg/kg PO in mice, read-out: Cmax): 40000 ng/mL
AUC(0-t) ([2]; male, Swiss outbred, mouse, in vivo, mice, IV, mean dose 1.0 mg/kg, read-out: Plasma AUC0-48 h): 8.48 µg·h/mL
AUC(0-inf) ([2]; male, Swiss outbred, mouse, in vivo, mice, IV, mean dose 1.0 mg/kg, read-out: Plasma AUC0-inf): 8.52 µg·h/mL
half-life ([2]; male, Swiss outbred, mouse, plasma, mice, IV, mean dose 1.0 mg/kg, read-out: Apparent t1/2 (converted)): 8.9 h
PlasmaVSS ([2]; mice, IV, mean dose 1.0 mg/kg): 1.64 L/kg
IC50 [3]: > 20 µM
CLint [4]: <1 μL/min/10^6
CLint [5]: <1 μL/min/10^6
microsomal CLint [6]: < 7 µL/min/mg
ED50 ([7]; adult stage, read-out: S. mansoni ED50, adult): 20 mg/kg
ED50 ([7]; juvenile stage, read-out: S. mansoni ED50, juvenile): 23 mg/kg
IC50 [8]: > 20 µM
IC50 [9]: > 20 µM

Source: patent US20250353819A1, “ARYL HYDANTOIN COMPOUNDS AND METHODS OF USE” (priority 2022, published 2025)
